According to patent publication US8299056B2 (Signal Pharmaceuticals, LLC, priority 2008, dated 2012):

biological target: T1, Syk (Homo sapiens, UniProt P43405); assay: Syk HTRF assay; format: biochemical; conditions: IC50 activity level, read-out: Activity Level
T1 construct: purchased Carna Biosciences
Method in brief: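 HTRF kinase assay in HEPES pH 7.6 buffer with MgCl2, DTT and Triton X100; start mix of 87.5 μM ATP and 80 nM biotinylated peptide, 1 h at room temperature. EDTA stop, then Eu-anti-phosphotyrosine/streptavidin-DyLight 647 detection, read as 665/615 nm emission ratio.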

Row | IC50 [nM] | SMILES
1 | 0.005 to 250 | c1ccc(Nc2nc3cccc(CC4CCNCC4)n3n2)cc1 [Example 482, N-phenyl-5-(piperidin-4-ylmethyl)-[1,2,4]triazolo[1,5-a]pyridin-2-amine]
2 | 1000 to 10000 | O[C@H]1CC[C@@H](Oc2cccc3nc(Nc4ccc(F)cc4)nn23)CC1 [Example 417, cis-4-(2-(4-fluorophenylamino)-[1,2,4]triazolo[1,5-a]pyridin-5-yloxy)cyclohexanol]
3 | 0.005 to 250 | O[C@H]1CC[C@@H](Nc2cccc3nc(Nc4ccccc4)nn23)CC1 [Example 471, cis-4-(2-(phenylamino)-[1,2,4]triazolo[1,5-a]pyridin-5-ylamino)cyclohexanol]
4 | 1000 to 10000 | C1=C(c2cccc3nc(Nc4ccccc4)nn23)CCNC1 [Example 513, N-phenyl-5-(1,2,3,6-tetrahydropyridin-4-yl)-[1,2,4]triazolo[1,5-a]pyridin-2-amine]
5 | 1000 to 10000 | NCCn1cnc2ccc(-c3cccc4nc(Nc5ccccc5)nn34)cc21 [Example 515, 5-(1-(2-aminoethyl)-1H-benzo[d]imidazol-6-yl)-N-phenyl-[1,2,4]triazolo[1,5-a]pyridin-2-amine]
6 | 0.005 to 250 | CNCc1nc2ccc(-c3cccc4nc(Nc5ccc(C(F)(F)F)cc5)nn34)cc2[nH]1 [Example 440, 5-(2-((methylamino)methyl)-1H-benzo[d]imidazol-6-yl)-N-(4-(trifluoromethyl)phenyl)-[1,2,4]triazolo[1,5-a]pyridin-2-amine]
7 | 1000 to 10000 | Cc1nnc2cc(Nc3nc4cccc(CC5CCOCC5)n4n3)ccn12 [Example 538, 3-methyl-N-(5-((tetrahydro-2H-pyran-4-yl)methyl)-[1,2,4]triazolo[1,5-a]pyridin-2-yl)-[1,2,4]triazolo[4,3-a]pyridin-7-amine]
8 | 500 to 1000 | OC[C@H]1CC[C@H](Nc2cccc3nc(Nc4ccc(C(F)(F)F)cc4)nn23)CC1 (stereo in doubt) [Example 414, trans-(4-(2-(4-(trifluoromethyl)phenylamino)-[1,2,4]triazolo[1,5-a]pyridin-5-ylamino)cyclohexyl)methanol]
9 | 1000 to 10000 | NC(=O)c1ccc(Nc2nc3cccc(NC4CCCNC4)n3n2)cc1 (stereo in doubt) [Example 476, (R)-4-(5-(piperidin-3-ylamino)-[1,2,4]triazolo[1,5-a]pyridin-2-ylamino)benzamide]

same assay, conditions: activity levels A-D, read-out: Activity Level (IC50 in the Syk HTRF assay)

Row | IC50 [nM] | SMILES
10 | 0.005 to 250 | O[C@H]1CC[C@@H](Nc2cccc3nc(Nc4ccc(F)cc4)nn23)CC1 [Example 319, cis-4-(2-(4-fluorophenylamino)-[1,2,4]triazolo[1,5-a]pyridin-5-ylamino)cyclohexanol]
11 | 500 to 1000 | C[C@]1(O)CC[C@H](Nc2cccc3nc(Nc4ccc(C(F)(F)F)cc4)nn23)CC1 [Example 383, trans-1-methyl-4-(2-(4-(trifluoromethyl)phenylamino)-[1,2,4]triazolo[1,5-a]pyridin-5-ylamino)cyclohexanol]
12 | 1000 to 10000 | CC(C)C1CNC(=O)CN1Cc1cccc2nc(Nc3ccc(C(F)(F)F)cc3)nn12 (racemic) [Example 230, (±)-5-isopropyl-4-((2-(4-(trifluoromethyl)phenylamino)-[1,2,4]triazolo[1,5-a]pyridin-5-yl)methyl)piperazin-2-one]
13 | 0.005 to 250 | O[C@H]1CC[C@@H](Nc2cccc3nc(Nc4ccnc(NCCN5CCCC5)c4)nn23)CC1 [Example 278, cis-4-(2-(2-(2-(pyrrolidin-1-yl)ethylamino)pyridin-4-ylamino)-[1,2,4]triazolo[1,5-a]pyridin-5-ylamino)cyclohexanol]
14 | 0.005 to 250 | Cc1cccc(Nc2nc3cccc(N[C@H]4CC[C@@H](O)CC4)n3n2)c1 [Example 350, cis-4-(2-(m-tolylamino)-[1,2,4]triazolo[1,5-a]pyridin-5-ylamino)cyclohexanol]
15 | 0.005 to 250 | Cc1n[nH]c2cc(Nc3nc4cccc(CN5CCNC(=O)C5)n4n3)ccc12 [Example 235, 4-((2-(3-methyl-1H-indazol-6-ylamino)-[1,2,4]triazolo[1,5-a]pyridin-5-yl)methyl)piperazin-2-one]
16 | 1000 to 10000 | C[C@H](NCc1cccc2nc(Nc3ccc(C(F)(F)F)cc3)nn12)C(N)=O [Example 222, (S)-2-((2-(4-(trifluoromethyl)phenylamino)-[1,2,4]triazolo[1,5-a]pyridin-5-yl)methylamino)propanamide]
17 | 1000 to 10000 | OC1CCCN(Cc2cccc3nc(Nc4ccc(C(F)(F)F)cc4)nn23)C1 (stereo in doubt) [Example 299, (R)-1-((2-(4-(trifluoromethyl)phenylamino)-[1,2,4]triazolo[1,5-a]pyridin-5-yl)methyl)piperidin-3-ol]
18 | 0.005 to 250 | O[C@H]1CC[C@@H](Nc2cccc3nc(Nc4cccc(Cl)c4)nn23)CC1 [Example 354, cis-4-(2-(3-chlorophenylamino)-[1,2,4]triazolo[1,5-a]pyridin-5-ylamino)cyclohexanol]
19 | 1000 to 10000 | NC(=O)C1CCCN(Cc2cccc3nc(Nc4ccc(C(F)(F)F)cc4)nn23)C1 (stereo not drawn) [Example 257, 1-((2-(4-(trifluoromethyl)phenylamino)-[1,2,4]triazolo[1,5-a]pyridin-5-yl)methyl)piperidine-3-carboxamide]
20 | 0.005 to 250 | Cc1n[nH]c2cc(Nc3nc4cccc(N[C@H]5CC[C@@H](O)CC5)n4n3)ccc12 [Example 351, cis-4-(2-(3-methyl-1H-indazol-6-ylamino)-[1,2,4]triazolo[1,5-a]pyridin-5-ylamino)cyclohexanol]
21 | 0.005 to 250 | Cc1c2ccc(Nc3nc4cccc(N[C@H]5CC[C@@H](O)CC5)n4n3)cc2nn1C [Example 217, cis-4-(2-(2,3-dimethyl-2H-indazol-6-ylamino)-[1,2,4]triazolo[1,5-a]pyridin-5-ylamino)cyclohexanol]
22 | 0.005 to 250 | O[C@H]1CC[C@@H](Nc2cccc3nc(Nc4cnc5[nH]ccc5c4)nn23)CC1 [Example 297, cis-4-(2-(1H-pyrrolo[2,3-b]pyridin-5-ylamino)-[1,2,4]triazolo[1,5-a]pyridin-5-ylamino)cyclohexanol]
23 | 0.005 to 250 | Cc1ccc(Nc2nc3cccc(N[C@H]4CC[C@@H](O)CC4)n3n2)cc1 [Example 343, cis-4-(2-(p-tolylamino)-[1,2,4]triazolo[1,5-a]pyridin-5-ylamino)cyclohexanol]
24 | 500 to 1000 | CNC(=O)c1ccc(Nc2nc3cccc(N[C@H]4CC[C@@H](O)CC4)n3n2)cc1 [Example 386, cis-4-(5-(4-hydroxycyclohexylamino)-[1,2,4]triazolo[1,5-a]pyridin-2-ylamino)-N-methylbenzamide]

same assay, conditions: read-out: Activity Level (Syk HTRF assay IC50)

Row | IC50 [nM] | SMILES
25 | 0.005 to 250 | OCc1nc2ccc(Nc3nc4cccc(N[C@H]5CC[C@@H](O)CC5)n4n3)cc2[nH]1 [Example 195, cis-4-(2-(2-(hydroxymethyl)-1H-benzo[d]imidazol-6-ylamino)-[1,2,4]triazolo[1,5-a]pyridin-5-ylamino)cyclohexanol]
26 | 0.005 to 250 | Oc1cccc(-c2cccc3nc(Nc4ccc(N5CCOCC5)cc4)nn23)c1 [compound 32, 3-(2-(4-morpholinophenylamino)-[1,2,4]triazolo[1,5-a]pyridin-5-yl)phenol]
27 | 0.005 to 250 | Cn1nnc2ccc(Nc3nc4cccc(-c5cccc(O)c5)n4n3)cc21 [compound 28, 3-(2-(1-methyl-1H-benzo[d][1,2,3]triazol-6-ylamino)-[1,2,4]triazolo[1,5-a]pyridin-5-yl)phenol]
28 | 0.005 to 250 | Oc1cccc(-c2cccc3nc(Nc4ccc5cnoc5c4)nn23)c1 [compound 14, 3-(2-(benzo[d]isoxazol-6-ylamino)-[1,2,4]triazolo[1,5-a]pyridin-5-yl)phenol]
29 | 250 to 500 | FC(F)(F)c1n[nH]c2cc(Nc3nc4cccc(NC5CCOCC5)n4n3)ccc12 [compound 129]
30 | 0.005 to 250 | COCc1nc2ccc(Nc3nc4cccc(CC5CCOCC5)n4n3)cc2[nH]1 [compound 132, N-(2-(methoxymethyl)-1H-benzo[d]imidazol-6-yl)-5-((tetrahydro-2H-pyran-4-yl)methyl)-[1,2,4]triazolo[1,5-a]pyridin-2-amine]
31 | 0.005 to 250 | Cc1n[nH]c2cc(Nc3nc4cccc(NC5CCOC5)n4n3)ccc12 (stereo in doubt) [Example 167, (R)-N^2-(3-methyl-1H-indazol-6-yl)-N^5-(tetrahydrofuran-3-yl)-[1,2,4]triazolo[1,5-a]pyridin-2,5-diamine]
32 | 250 to 500 | N#Cc1cccc(-c2cccc3nc(Nc4ccc(C(N)=O)cc4)nn23)c1 [compound 63, 4-(5-(3-cyanophenyl)-[1,2,4]triazolo[1,5-a]pyridin-2-ylamino)benzamide]
33 | 0.005 to 250 | CNC(=O)c1ccc(Nc2nc3cccc(-c4cc(Cl)cc(-c5ccccc5C(N)=O)c4)n3n2)cc1 [compound 5, 3′-chloro-5′-(2-(4-(methylcarbamoyl)phenylamino)-[1,2,4]triazolo[1,5-a]pyridin-5-yl)biphenyl-2-carboxamide]
34 | 1000 to 10000 | Cn1nc(NC2CCOCC2)c2ccc(Nc3nc4cccc(CC5CCOCC5)n4n3)cc21 [Example 99]
35 | 0.005 to 250 | c1ccc(-c2cccc3nc(Nc4ccc5[nH]ncc5c4)nn23)cc1 [compound 61]
36 | 500 to 1000 | COC[C@]1(O)CC[C@@H](Cc2cccc3nc(Nc4ccc(C(F)(F)F)cc4)nn23)CC1 [Example 187, cis-1-(methoxymethyl)-4-((2-(4-(trifluoromethyl)phenylamino)-[1,2,4]triazolo[1,5-a]pyridin-5-yl)methyl)cyclohexanol]
37 | 0.005 to 250 | CN(C)c1ccc(Nc2nc3cccc(-c4ccccc4)n3n2)cc1 [Example 94]
38 | 1000 to 10000 | CN1C(=O)Cc2ccc(Nc3nc4cccc(CC5CCOCC5)n4n3)cc21 [compound 118, 1-methyl-6-(5-((tetrahydro-2H-pyran-4-yl)methyl)-[1,2,4]triazolo[1,5-a]pyridin-2-ylamino)indolin-2-one]
39 | 0.005 to 250 | O=C(NC1CCNCC1)c1ccc(Nc2nc3cccc(-c4ccccc4)n3n2)cc1 [compound 77, 4-(5-phenyl-[1,2,4]triazolo[1,5-a]pyridin-2-ylamino)-N-(piperidin-4-yl)benzamide]
